These results are taken from US9050341B2, “Methods of treating drug resistant and other tumors by administering 6,7-dialkoxy quinazoline derivatives” (NATCO PHARMA LIMITED, priority 2009, dated 2015).

Holding throughout (experiment): KinomeScan kinase profiling
Holding throughout (format): binding

One assay addresses T1, PIM1 (Homo sapiens, UniProt P11309).
T1 construct: purchased Ambit Biosciences Corp (KinomeScan); host or cells: E. coli host derived from BL21, infected with T7 phage
Put shortly: (§1)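 Kinases were expressed as T7 phage fusions in a BL21-derived E. coli host and the cleared lysates were used. Ligand beads were blocked with biotin and buffer (1% BSA, 0.05% Tween 20, 1 mM DTT). Compounds came from 40× DMSO stocks, and phage in the eluates was titred by qPCR.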

For a further assay, the target named is T2, TIE2 (Homo sapiens, UniProt Q02763).
T2 construct: purchased Ambit Biosciences Corp (KinomeScan); host or cells: E. coli host derived from the BL21 strain (T7 phage lysate)
T2 sequence (Q02763 23-1124): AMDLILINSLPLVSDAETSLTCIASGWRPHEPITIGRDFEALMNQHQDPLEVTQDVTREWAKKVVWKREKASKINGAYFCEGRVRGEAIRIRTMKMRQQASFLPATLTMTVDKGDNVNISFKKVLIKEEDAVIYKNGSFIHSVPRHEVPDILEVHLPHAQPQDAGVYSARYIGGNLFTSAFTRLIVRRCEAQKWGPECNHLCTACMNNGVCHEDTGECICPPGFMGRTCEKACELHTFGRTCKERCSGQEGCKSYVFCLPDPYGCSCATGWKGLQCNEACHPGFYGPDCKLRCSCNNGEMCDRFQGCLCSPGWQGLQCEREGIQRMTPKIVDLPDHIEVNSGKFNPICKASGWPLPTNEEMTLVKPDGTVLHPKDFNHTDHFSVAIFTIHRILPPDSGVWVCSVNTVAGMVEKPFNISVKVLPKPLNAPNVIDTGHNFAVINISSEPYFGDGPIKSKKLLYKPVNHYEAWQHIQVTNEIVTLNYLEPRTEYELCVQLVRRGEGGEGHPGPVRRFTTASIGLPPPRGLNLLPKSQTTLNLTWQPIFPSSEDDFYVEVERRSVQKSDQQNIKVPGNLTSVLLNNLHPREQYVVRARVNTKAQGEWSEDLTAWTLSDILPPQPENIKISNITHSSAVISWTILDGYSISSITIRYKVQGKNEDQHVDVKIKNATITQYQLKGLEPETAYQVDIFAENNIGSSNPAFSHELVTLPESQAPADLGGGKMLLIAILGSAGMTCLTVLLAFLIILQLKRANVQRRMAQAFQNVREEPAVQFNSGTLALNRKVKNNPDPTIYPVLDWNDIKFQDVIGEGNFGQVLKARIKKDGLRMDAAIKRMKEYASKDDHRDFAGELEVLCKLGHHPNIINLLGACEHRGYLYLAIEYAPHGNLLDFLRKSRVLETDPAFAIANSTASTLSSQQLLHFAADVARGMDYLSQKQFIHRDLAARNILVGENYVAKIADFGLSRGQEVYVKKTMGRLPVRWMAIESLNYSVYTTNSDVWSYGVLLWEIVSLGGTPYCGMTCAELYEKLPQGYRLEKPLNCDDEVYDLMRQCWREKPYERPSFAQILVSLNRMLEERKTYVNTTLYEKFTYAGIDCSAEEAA
Put shortly:
as §1

For a further assay, the target named is T3, EPHA3 (Homo sapiens, UniProt P29320).
T3 construct: host or cells: E. coli host derived from BL21, T7 phage lysate
T3 sequence (P29320 21-983): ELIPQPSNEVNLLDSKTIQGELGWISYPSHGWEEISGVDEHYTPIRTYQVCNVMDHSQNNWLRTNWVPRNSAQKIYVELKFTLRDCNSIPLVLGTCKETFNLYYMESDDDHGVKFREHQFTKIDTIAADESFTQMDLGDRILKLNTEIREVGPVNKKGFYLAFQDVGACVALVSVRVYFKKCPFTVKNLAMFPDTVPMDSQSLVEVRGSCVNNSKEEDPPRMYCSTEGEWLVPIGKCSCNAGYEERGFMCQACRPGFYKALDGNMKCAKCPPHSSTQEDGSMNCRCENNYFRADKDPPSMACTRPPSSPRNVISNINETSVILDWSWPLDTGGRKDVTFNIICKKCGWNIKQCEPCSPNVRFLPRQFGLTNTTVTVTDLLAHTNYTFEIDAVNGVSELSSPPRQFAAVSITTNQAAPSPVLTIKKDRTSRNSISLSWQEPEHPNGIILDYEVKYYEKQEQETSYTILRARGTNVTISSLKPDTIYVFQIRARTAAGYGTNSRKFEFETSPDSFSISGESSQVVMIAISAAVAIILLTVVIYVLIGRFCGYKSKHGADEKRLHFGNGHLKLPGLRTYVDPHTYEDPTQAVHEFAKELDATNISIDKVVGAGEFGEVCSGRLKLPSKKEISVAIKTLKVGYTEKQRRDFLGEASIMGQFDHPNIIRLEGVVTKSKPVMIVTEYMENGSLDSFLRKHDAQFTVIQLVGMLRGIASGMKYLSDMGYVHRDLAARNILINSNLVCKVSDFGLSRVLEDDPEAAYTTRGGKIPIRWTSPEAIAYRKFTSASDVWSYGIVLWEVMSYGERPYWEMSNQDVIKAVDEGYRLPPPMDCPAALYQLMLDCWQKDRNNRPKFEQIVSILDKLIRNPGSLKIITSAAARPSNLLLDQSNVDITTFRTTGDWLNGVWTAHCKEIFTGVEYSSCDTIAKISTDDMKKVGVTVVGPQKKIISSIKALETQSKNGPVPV
Put shortly: as §1

The next assay deals with T4, MINK (Homo sapiens, UniProt Q8N4C8).
T4 construct: host or cells: E. coli derived from BL21, infected with T7 phage
The gist of the method: as §1

For a further assay, the target named is T5, ACVR2B (Homo sapiens, UniProt Q13705).
T5 construct: host or cells: E. coli host derived from BL21 (T7 phage lysate)
Put shortly:
as §1

A further assay addresses T6, EPHB3 (Homo sapiens, UniProt P54753).
T6 construct: host or cells: E. coli host derived from BL21, T7 phage lysate
The gist of the method:
as §1

The next assay has as its target T7, ROCK2 (Homo sapiens, UniProt O75116).
T7 construct: host or cells: E. coli host derived from BL21, T7 phage lysate
The gist of the method:
as §1

Another assay has as its target T8, NEK2 (Homo sapiens, UniProt P51955).
T8 construct: host or cells: T7 phage in E. coli host derived from BL21
Put shortly: as §1

The target in a further assay is T9, JNK3 (Homo sapiens, UniProt P53779).
T9 construct: host or cells: T7 phage in E. coli host derived from BL21
The gist of the method: as §1

A further assay concerns the target T10, ABL1 (M351T) (Homo sapiens, UniProt P00519, M351T).
T10 construct: host or cells: E. coli host derived from BL21 (T7 phage lysate)
Put shortly:
as §1

A further assay has as its target T11, GCN2 (Kin.Dom.2.S808G) (Homo sapiens, UniProt Q9P2K8, S808G).
T11 construct: GCN2(KIN.DOM.2, S808G); host or cells: E. coli host derived from BL21, infected with T7 phage
The gist of the method:
as §1

Another assay addresses T12, ACVR1 (Homo sapiens, UniProt Q04771).
T12 construct: host or cells: E. coli host derived from BL21 (T7 phage lysate)
The gist of the method: as §1

The next assay deals with T13, SgK110 (Homo sapiens, UniProt P0C264).
T13 construct: host or cells: E. coli host derived from the BL21 strain, T7 phage lysate
Put shortly:
as §1

The target of a further assay is T14, CAMK2A (Homo sapiens, UniProt Q9UQM7).
T14 construct: purchased Ambit Biosciences Corp (KinomeScan); host or cells: E. coli host derived from the BL21 strain, T7 phage
Put shortly: as §1

The next assay has as its target T15, DLK (Homo sapiens, UniProt Q12852).
T15 construct: purchased Ambit Biosciences Corp (KinomeScan); host or cells: T7 phage in E. coli host derived from BL21
The gist of the method: as §1

Another assay deals with T16, FLT1 (Homo sapiens, UniProt P17948).
T16 construct: host or cells: E. coli host derived from BL21, infected with T7 phage
The gist of the method: as §1

The target in another assay is T17, NEK9 (Homo sapiens, UniProt Q8TD19).
T17 construct: host or cells: T7 phage in E. coli host derived from BL21
The gist of the method: as §1

A further assay concerns the target T18, PRKG1 (Homo sapiens, UniProt Q13976).
T18 construct: purchased Ambit Biosciences Corp (KinomeScan); host or cells: E. coli host derived from BL21, infected with T7 phage
The gist of the method:
as §1

The next assay has as its target T19, LKB1 (Homo sapiens, UniProt Q15831).
T19 construct: host or cells: E. coli derived from BL21, infected with T7 phage
The gist of the method:
as §1

For another assay, the target named is T20, TSSK1B (Homo sapiens, UniProt Q9BXA7).
T20 construct: purchased Ambit Biosciences Corp (KinomeScan); host or cells: E. coli host derived from the BL21 strain (T7 phage lysate)
Put shortly: as §1

A further assay addresses T21, STK36 (Homo sapiens, UniProt Q9NRP7).
T21 construct: host or cells: E. coli host derived from the BL21 strain, T7 phage lysate
Put shortly: as §1

In a further assay the target is T22, PIK3CG (Homo sapiens, UniProt P48736).
T22 construct: purchased Ambit Biosciences Corp (KinomeScan); host or cells: E. coli host derived from BL21, infected with T7 phage
T22 sequence (P48736 whole entry): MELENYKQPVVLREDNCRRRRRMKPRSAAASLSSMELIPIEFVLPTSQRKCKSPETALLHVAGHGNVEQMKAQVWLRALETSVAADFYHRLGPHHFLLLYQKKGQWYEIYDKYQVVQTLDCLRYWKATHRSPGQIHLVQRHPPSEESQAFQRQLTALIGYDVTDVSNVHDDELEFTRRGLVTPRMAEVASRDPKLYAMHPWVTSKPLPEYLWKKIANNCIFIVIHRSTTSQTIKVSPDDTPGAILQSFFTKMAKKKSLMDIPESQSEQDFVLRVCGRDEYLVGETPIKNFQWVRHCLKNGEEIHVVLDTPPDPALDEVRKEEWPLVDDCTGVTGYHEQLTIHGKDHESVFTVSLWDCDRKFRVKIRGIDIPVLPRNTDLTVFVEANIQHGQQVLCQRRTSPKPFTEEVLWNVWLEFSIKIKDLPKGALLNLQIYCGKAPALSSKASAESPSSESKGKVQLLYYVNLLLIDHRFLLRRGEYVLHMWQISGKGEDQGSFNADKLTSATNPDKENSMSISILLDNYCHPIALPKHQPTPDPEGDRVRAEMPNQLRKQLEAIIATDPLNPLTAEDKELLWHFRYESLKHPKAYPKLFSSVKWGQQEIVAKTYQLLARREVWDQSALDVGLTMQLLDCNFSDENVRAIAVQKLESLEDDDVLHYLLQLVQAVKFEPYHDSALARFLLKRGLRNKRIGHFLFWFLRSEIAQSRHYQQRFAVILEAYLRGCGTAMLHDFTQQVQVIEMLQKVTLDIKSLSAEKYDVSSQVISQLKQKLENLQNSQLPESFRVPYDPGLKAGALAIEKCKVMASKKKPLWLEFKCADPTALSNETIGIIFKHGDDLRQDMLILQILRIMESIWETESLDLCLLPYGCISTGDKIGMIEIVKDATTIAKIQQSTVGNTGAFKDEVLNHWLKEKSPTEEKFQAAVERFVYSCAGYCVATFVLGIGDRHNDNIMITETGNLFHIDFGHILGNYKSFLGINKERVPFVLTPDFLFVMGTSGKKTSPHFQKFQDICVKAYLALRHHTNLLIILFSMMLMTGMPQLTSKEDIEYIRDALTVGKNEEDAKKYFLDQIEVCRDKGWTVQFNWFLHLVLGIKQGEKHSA
The gist of the method:
as §1

For a further assay, the target named is T23, MST4 (Homo sapiens, UniProt Q9P289).
T23 construct: host or cells: T7 phage in E. coli host derived from BL21
Put shortly:
as §1

Molecules are shown by their SMILES.

T6 sequence (P54753 34-998): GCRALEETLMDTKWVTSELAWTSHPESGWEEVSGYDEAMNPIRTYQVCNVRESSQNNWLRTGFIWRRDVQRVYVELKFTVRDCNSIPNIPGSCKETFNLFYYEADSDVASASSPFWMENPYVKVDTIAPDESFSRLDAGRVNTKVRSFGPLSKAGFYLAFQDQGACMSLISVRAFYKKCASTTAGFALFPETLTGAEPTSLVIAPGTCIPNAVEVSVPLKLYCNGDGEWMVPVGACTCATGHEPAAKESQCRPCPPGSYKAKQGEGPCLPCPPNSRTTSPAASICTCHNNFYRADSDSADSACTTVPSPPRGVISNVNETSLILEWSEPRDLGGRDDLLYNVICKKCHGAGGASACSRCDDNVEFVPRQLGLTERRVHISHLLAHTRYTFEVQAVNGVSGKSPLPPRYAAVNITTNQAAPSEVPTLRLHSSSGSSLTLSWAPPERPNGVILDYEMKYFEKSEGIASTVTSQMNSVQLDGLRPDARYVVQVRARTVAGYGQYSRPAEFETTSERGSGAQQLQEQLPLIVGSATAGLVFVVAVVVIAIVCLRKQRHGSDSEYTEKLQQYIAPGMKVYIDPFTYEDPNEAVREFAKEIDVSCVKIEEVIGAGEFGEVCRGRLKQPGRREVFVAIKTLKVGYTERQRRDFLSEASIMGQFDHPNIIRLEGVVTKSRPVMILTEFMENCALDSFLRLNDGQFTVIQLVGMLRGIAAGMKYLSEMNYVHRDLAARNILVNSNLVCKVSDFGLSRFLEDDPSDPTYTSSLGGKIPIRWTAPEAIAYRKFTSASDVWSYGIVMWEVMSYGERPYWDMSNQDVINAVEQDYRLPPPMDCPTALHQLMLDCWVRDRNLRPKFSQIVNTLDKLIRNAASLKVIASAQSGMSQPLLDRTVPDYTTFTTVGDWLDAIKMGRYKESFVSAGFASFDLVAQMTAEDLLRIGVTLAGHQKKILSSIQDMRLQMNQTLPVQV
T12 sequence (Q04771 21-509): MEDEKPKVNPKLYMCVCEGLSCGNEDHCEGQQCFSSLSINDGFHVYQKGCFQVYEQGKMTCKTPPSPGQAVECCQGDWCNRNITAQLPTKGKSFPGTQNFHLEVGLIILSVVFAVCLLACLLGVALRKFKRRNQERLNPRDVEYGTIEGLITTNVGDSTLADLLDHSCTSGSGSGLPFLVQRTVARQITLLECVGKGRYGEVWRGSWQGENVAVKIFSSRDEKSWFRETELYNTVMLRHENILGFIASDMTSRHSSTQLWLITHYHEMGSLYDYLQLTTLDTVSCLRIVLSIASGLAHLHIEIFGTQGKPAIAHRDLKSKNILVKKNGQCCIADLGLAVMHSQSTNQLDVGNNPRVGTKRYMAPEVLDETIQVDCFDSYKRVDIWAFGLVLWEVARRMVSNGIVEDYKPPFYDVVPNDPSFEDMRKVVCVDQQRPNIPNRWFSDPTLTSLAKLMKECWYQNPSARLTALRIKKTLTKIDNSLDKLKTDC
T1 sequence (P11309 whole entry): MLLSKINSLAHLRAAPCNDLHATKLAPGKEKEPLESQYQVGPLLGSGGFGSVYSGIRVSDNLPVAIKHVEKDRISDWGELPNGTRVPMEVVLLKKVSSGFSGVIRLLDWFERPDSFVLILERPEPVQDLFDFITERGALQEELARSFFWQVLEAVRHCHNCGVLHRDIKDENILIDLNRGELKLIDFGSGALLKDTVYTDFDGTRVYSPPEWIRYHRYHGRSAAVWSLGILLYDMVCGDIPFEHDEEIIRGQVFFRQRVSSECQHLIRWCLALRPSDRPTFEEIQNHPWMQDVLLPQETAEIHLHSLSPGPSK

For `C#Cc1cccc(Nc2ncnc3cc(OC)c(OCCCN4CCOCC4)cc23)c1` [NRC-2694, N-(3-ethylnylphenyl)-7-methoxy-6-[3-(4-morpholinyl)propoxy]-4-quinazolinamine], the “% Ctrl @ 10000 nM” value at PIM1 is 39 % Ctrl; at TIE2 it was 76 % Ctrl; on EPHA3 it was 56 % Ctrl; on MINK, 16 % Ctrl; on ACVR2B, 63 % Ctrl; at EPHB3 it was 75 % Ctrl. Further, the “% Ctrl @ 10000 nM” value was 38 % Ctrl at ROCK2; 63 % Ctrl on NEK2; 77 % Ctrl at JNK3; 37 % Ctrl on ABL1 (M351T); 12 % Ctrl on GCN2 (Kin.Dom.2.S808G); 61 % Ctrl on ACVR1. Moreover, the “% Ctrl @ 10000 nM” value came to 83 % Ctrl at SgK110; 63 % Ctrl at CAMK2A; 92 % Ctrl on DLK; 64 % Ctrl at FLT1; 85 % Ctrl at NEK9; 75 % Ctrl on PRKG1. In addition, the “% Ctrl @ 10000 nM” value at LKB1 was 69 % Ctrl; on TSSK1B, 93 % Ctrl; at STK36, 4.6 % Ctrl; on PIK3CG, 78 % Ctrl; on MST4 it was 29 % Ctrl.
